# How the values were obtained:
# bone resorption = conditions: cited from earlier work
# fetal rat long bone = test: Bone resorption measured as 45Ca release in organ culture; format: cell-based; conditions: stimulating factor alone at 10 ng/ml, 120 hours; untreated bones roughly 20%
# Protocol: In this example, the percentage of labeled calcium (^45Ca) from fetal rat long bone was used as a measure of bone resorption. To label the bones, pregnant female rats at the 18th day of gestation were injected subcutaneously with 50 μCi of labeled calcium salt. The embryos were harvested the next day, at 19 days gestation, and long bones were obtained from the fetuses. The bones were cultured in standard media for 120 hours in the presence or absence of various putative bone resorption stimulation factors and in the presence and absence of the anti-PTH-rp (1-34) antibody used in Preparation A. The results are shown in FIG. 2.
Molecule,"potency relative to etidronate, ability to inhibit bone resorption (bone resorption)",release of labeled calcium (45Ca) into the medium (fetal rat long bone) [%]
NCCC(O)(P(=O)(O)O)P(=O)(O)O [pamidronate],approximately 100 times,
parathyroid hormone-related protein [PTH-rp],,~90
"PTH: parathyroid hormone, bone resorption stimulating factor added to culture medium (protein, UniProt P01270 32-115, looked up, Parathyroid hormone, parathyroid hormone, bone resorption stimulating factor added to culture medium) Parathyroid hormone: SVSEIQLMHNLGKHLNSMERVEWLRKKLQDVHNFVALGAPLAPRDAGSQRPRKKEDNVLVESHEKSLGEADKADVNVLTKAKSQ",,~90

# From patent US20050244414A1, “Method to ameliorate osteolysis and metastasis” (XENOTECH INCORPORATED, priority 1995, published 2005)
